Key:
Assay type in all cases: in vivo
[1] = tested on: rapeseed; assay: Test Example 5: effect on crop by foliage application, plastic box (symbol g); conditions: 320 g/ha, 3 weeks after application
In short: (§1)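 Sterilized diluvial soil, plastic box (21 × 13 × 7 cm); spot sowing, ~1.5 cm soil cover; greenhouse 25–30° C.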

[2] = tested on: directly sowed rice plant; assay: Test Example 3: effect on crop by foliage application, Wagner pot (symbol b); conditions: application herbicide amount 320 g/ha
In short: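 Steps: fill a 1/10000-are Wagner pot with alluvial soil; add water and mix to submerge at 0.1–0.5 cm depth; sow rice plus Echinochloa crus-galli var. crus-galli, Leptochloa chinensis and Cyperus difformis; grow in a 25–30 °C greenhouse.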

[3] = tested on: Stellaria media; assay: Test Example 4: herbicidal effect by soil treatment (symbol P); conditions: application herbicide amount 320 g/ha
In short: (§2)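 Seeds were sown in sterilized diluvial soil, covered with about 1.5 cm of soil, and the soil surface was sprayed with a water-diluted emulsion of the compound at a predetermined rate. Plants grew in a greenhouse at 25° C. to 30° C.; effects were scored visually 3 weeks after application.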

[4] = tested on: Echinochloa crus-galli var. crus-galli; assay: Test Example 3: herbicidal effect by foliage application, Wagner pot (symbol H); conditions: application herbicide amount 320 g/ha
In short: (§3)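 Foliar spray of water-diluted emulsion formulation at a predetermined herbicide amount onto 14-day-old plants in flooded alluvial soil (water depth 0.1–0.5 cm), greenhouse 25–30 °C; rice sown alongside. Scored 3 wk post-application on set criteria.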

[5] = tested on: beet; assay: Test Example 5: effect on crop by foliage application, plastic box (symbol f); conditions: 320 g/ha, 3 weeks after application
In short: as §1

[6] = tested on: Digitaria ciliaris; assay: Test Example 4: herbicidal effect by soil treatment (symbol F); conditions: application herbicide amount 320 g/ha
In short: as §2

[7] = tested on: Leptochloa chinensis; assay: Test Example 3: herbicidal effect by foliage application, Wagner pot (symbol D); conditions: application herbicide amount 320 g/ha
In short: as §3

[8] = tested on: Galium spurium; assay: Test Example 4: herbicidal effect by soil treatment (symbol Q); conditions: application herbicide amount 320 g/ha
In short: as §2

[9] = tested on: Veronica persica; assay: Test Example 4: herbicidal effect by soil treatment (symbol R); conditions: application herbicide amount 320 g/ha
In short: as §2

[10] = tested on: transplanted rice plant; assay: Test Example 1: effect on crop, application before weed generation in submerged conditions (symbol a); conditions: application herbicide amount 320 g/ha
In short: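 Rice at 2.5 leaf stage transplanted into submerged soil (4 cm depth) sown with three weed species; herbicide applied before weed emergence.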

[11] = tested on: Stellaria media; assay: Test Example 5: herbicidal effect by foliage application, plastic box (symbol P); conditions: 320 g/ha, 3 weeks after application
In short: (§4)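 Emulsion formulation, diluted with water to the intended rate, was applied uniformly to leaves by small sprayer. Recipients were 14-day greenhouse-grown seedlings (25° C. to 30° C.). Assessment followed at 3 weeks.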

[12] = tested on: Amaranthus retroflexus; assay: Test Example 4: herbicidal effect by soil treatment (symbol N); conditions: application herbicide amount 320 g/ha
In short: as §2

[13] = tested on: Abutilon theophrasti; assay: Test Example 4: herbicidal effect by soil treatment (symbol M); conditions: application herbicide amount 320 g/ha
In short: as §2

[14] = tested on: Avena fatua; assay: Test Example 5: herbicidal effect by foliage application, plastic box (symbol I); conditions: 320 g/ha, 3 weeks after application
In short: as §4

[15] = tested on: Chenopodium album; assay: Test Example 4: herbicidal effect by soil treatment (symbol O); conditions: application herbicide amount 320 g/ha
In short: as §2

[16] = tested on: Setaria viridis; assay: Test Example 4: herbicidal effect by soil treatment (symbol G); conditions: application herbicide amount 320 g/ha
In short: as §2

[17] = tested on: Lolium multiflorum Lam.; assay: Test Example 4: herbicidal effect by soil treatment (symbol K); conditions: application herbicide amount 320 g/ha
In short: as §2

[18] = tested on: Apera spica-venti; assay: Test Example 5: herbicidal effect by foliage application, plastic box (symbol L); conditions: 320 g/ha, 3 weeks after application
In short: as §4

[19] = tested on: rice plant; assay: Test Example 5: effect on crop by foliage application, plastic box (symbol b); conditions: 320 g/ha, 3 weeks after application
In short: as §1

[20] = tested on: Echinochloa crus-galli var. crus-galli; assay: Test Example 5: herbicidal effect by foliage application, plastic box (symbol H); conditions: 320 g/ha, 3 weeks after application
In short: as §4

[21] = tested on: Setaria viridis; assay: Test Example 5: herbicidal effect by foliage application, plastic box (symbol G); conditions: 320 g/ha, 3 weeks after application
In short: as §4

[22] = tested on: Abutilon theophrasti; assay: Test Example 5: herbicidal effect by foliage application, plastic box (symbol M); conditions: 320 g/ha, 3 weeks after application
In short: as §4

SMILES	g: rapeseed, effect on crop (criteria of Test Example 1) [1]	effect on crop b (directly sowed rice plant), grade 0-5 [2]	Herbicidal effect grade, P: Stellaria media [3]	herbicidal effect on H (Echinochloa crus-galli var. crus-galli), grade 0-5 [4]	f: beet, effect on crop (criteria of Test Example 1) [5]	Herbicidal effect grade, F: Digitaria ciliaris [6]	herbicidal effect on D (Leptochloa chinensis), grade 0-5 [7]	Herbicidal effect grade, Q: Galium spurium [8]	Herbicidal effect grade, R: Veronica persica [9]	Effect grade on crop, a: transplanted rice plant [10]	P: Stellaria media, herbicidal effect (criteria of Test Example 1) [11]	Herbicidal effect grade, N: Amaranthus retroflexus [12]	Herbicidal effect grade, M: Abutilon theophrasti [13]	I: Avena fatua, herbicidal effect (criteria of Test Example 1) [14]	Herbicidal effect grade, O: Chenopodium album [15]	Herbicidal effect grade, G: Setaria viridis [16]	Herbicidal effect grade, K: Lolium multiflorum Lam. [17]	L: Apera spica-venti, herbicidal effect (criteria of Test Example 1) [18]	b: directly sowed rice plant, effect on crop (criteria of Test Example 1) [19]	H: Echinochloa crus-galli var. crus-galli, herbicidal effect (criteria of Test Example 1) [20]	further results
CON=C(C)CC1CC(OC(=O)N2CCOCC2)=C(c2c(C)cc(-c3ccc(Cl)cc3F)cc2C)C1=O (stereo not drawn) [6-089]	4 (Herbicidal ratio of 70% or higher and lower than 90%)	5 (Herbicidal ratio of 90% or more (almost completely withered))	0 (Herbicidal ratio of 5% or lower (almost no effect))	5 (Herbicidal ratio of 90% or more (almost completely withered))	0 (Herbicidal ratio of 5% or lower (almost no effect))	5 (Herbicidal ratio of 90% or more (almost completely withered))	5 (Herbicidal ratio of 90% or more (almost completely withered))	0 (Herbicidal ratio of 5% or lower (almost no effect))	0 (Herbicidal ratio of 5% or lower (almost no effect))	5 (Herbicidal ratio of 90% or more (almost completely withered))	4 (Herbicidal ratio of 70% or higher and lower than 90%)	0 (Herbicidal ratio of 5% or lower (almost no effect))	0 (Herbicidal ratio of 5% or lower (almost no effect))	5 (Herbicidal ratio of 90% or more (almost completely withered))	0 (Herbicidal ratio of 5% or lower (almost no effect))	4 (Herbicidal ratio of 70% or higher and lower than 90%)	3 (Herbicidal ratio of 40% or higher and lower than 70%)	5 (Herbicidal ratio of 90% or more (almost completely withered))			
CON=C(C)CC1CC(OC(=O)N2CCOCC2)=C(c2c(C)cc(C)cc2OC)C1=O (stereo not drawn) [6-094]	4 (Herbicidal ratio of 70% or higher and lower than 90%)	5 (Herbicidal ratio of 90% or more (almost completely withered))	0 (Herbicidal ratio of 5% or lower (almost no effect))	5 (Herbicidal ratio of 90% or more (almost completely withered))		5 (Herbicidal ratio of 90% or more (almost completely withered))	5 (Herbicidal ratio of 90% or more (almost completely withered))	0 (Herbicidal ratio of 5% or lower (almost no effect))	3 (Herbicidal ratio of 40% or higher and lower than 70%)	5 (Herbicidal ratio of 90% or more (almost completely withered))	3 (Herbicidal ratio of 40% or higher and lower than 70%)	0 (Herbicidal ratio of 5% or lower (almost no effect))	4 (Herbicidal ratio of 70% or higher and lower than 90%)	5 (Herbicidal ratio of 90% or more (almost completely withered))	5 (Herbicidal ratio of 90% or more (almost completely withered))	5 (Herbicidal ratio of 90% or more (almost completely withered))	5 (Herbicidal ratio of 90% or more (almost completely withered))	5 (Herbicidal ratio of 90% or more (almost completely withered))	5 (Herbicidal ratio of 90% or more (almost completely withered))	5 (Herbicidal ratio of 90% or more (almost completely withered))	G: Setaria viridis, herbicidal effect (criteria of Test Example 1) [21]: 5 (Herbicidal ratio of 90% or more (almost completely withered)); M: Abutilon theophrasti, herbicidal effect (criteria of Test Example 1) [22]: 4 (Herbicidal ratio of 70% or higher and lower than 90%)
CON=C(C)CC1CC(OC(=O)N(C)C)=C(c2c(C)cc(C)cc2OC)C1=O (stereo not drawn) [6-109]	4 (Herbicidal ratio of 70% or higher and lower than 90%)	5 (Herbicidal ratio of 90% or more (almost completely withered))	0 (Herbicidal ratio of 5% or lower (almost no effect))	5 (Herbicidal ratio of 90% or more (almost completely withered))	0 (Herbicidal ratio of 5% or lower (almost no effect))	5 (Herbicidal ratio of 90% or more (almost completely withered))	4 (Herbicidal ratio of 70% or higher and lower than 90%)	0 (Herbicidal ratio of 5% or lower (almost no effect))	0 (Herbicidal ratio of 5% or lower (almost no effect))	5 (Herbicidal ratio of 90% or more (almost completely withered))	0 (Herbicidal ratio of 5% or lower (almost no effect))	0 (Herbicidal ratio of 5% or lower (almost no effect))	0 (Herbicidal ratio of 5% or lower (almost no effect))	5 (Herbicidal ratio of 90% or more (almost completely withered))	0 (Herbicidal ratio of 5% or lower (almost no effect))		5 (Herbicidal ratio of 90% or more (almost completely withered))	5 (Herbicidal ratio of 90% or more (almost completely withered))	5 (Herbicidal ratio of 90% or more (almost completely withered))	5 (Herbicidal ratio of 90% or more (almost completely withered))	G: Setaria viridis, herbicidal effect (criteria of Test Example 1) [21]: 5 (Herbicidal ratio of 90% or more (almost completely withered)); M: Abutilon theophrasti, herbicidal effect (criteria of Test Example 1) [22]: 4 (Herbicidal ratio of 70% or higher and lower than 90%)
COc1cc(Br)cc(F)c1C1=C(O)CC(CC(C)=O)C1=O (stereo not drawn) [7-029]	1 (Herbicidal ratio of 5% or higher and lower than 20%)		0 (Herbicidal ratio of 5% or lower (almost no effect))		0 (Herbicidal ratio of 5% or lower (almost no effect))	0 (Herbicidal ratio of 5% or lower (almost no effect))		0 (Herbicidal ratio of 5% or lower (almost no effect))	0 (Herbicidal ratio of 5% or lower (almost no effect))	0 (Herbicidal ratio of 5% or lower (almost no effect))	0 (Herbicidal ratio of 5% or lower (almost no effect))	0 (Herbicidal ratio of 5% or lower (almost no effect))	0 (Herbicidal ratio of 5% or lower (almost no effect))	3 (Herbicidal ratio of 40% or higher and lower than 70%)	0 (Herbicidal ratio of 5% or lower (almost no effect))	4 (Herbicidal ratio of 70% or higher and lower than 90%)	3 (Herbicidal ratio of 40% or higher and lower than 70%)	3 (Herbicidal ratio of 40% or higher and lower than 70%)			b (directly sowed rice plant) effect on crop grade ([2]; Table 24): 0 (Herbicidal ratio of 5% or lower (almost no effect)); H (Echinochloa crus-galli var. crus-galli) herbicidal effect grade ([4]; Table 24): 3 (Herbicidal ratio of 40% or higher and lower than 70%); D (Leptochloa chinensis) herbicidal effect grade ([7]; Table 24): 4 (Herbicidal ratio of 70% or higher and lower than 90%)

Reference: patent publication US11000033B2, “Ketone or oxime compound, and herbicide” (NISSAN CHEMICAL CORPORATION, priority 2014, dated 2021)
